The test system of one assay is BXPC3. Put plainly: Cell proliferation / cell death assay, BXPC3. The format is cell-based, human. The conditions noted are these: BXPC3, 10-100 μM. As to the method: (§1) Human pancreatic cancer cell lines (Panc-1, MiaPaca2, BXPC3, Aspc 1), human hepatoma cell line (HuH7), human gastric cancer cell lines (AGS, MKN45), human colon cancer cell line (CoCM-1), human mammary cancer cell line (MCF-7), human neuroblastoma (SH-SY5Y), human prostate cancer cells (PC3), and murine Ehrlich ascites cancer cells and mouse 3T3-L1 fibroblasts were obtained from American Type Culture Collection (Rockville, Md., USA). The cancer cells were cultured in RPMI 1640 containing 10% fetal calf serum. Cultures were maintained at 37° C. in a humidified atmosphere of 5% CO2.
(§2) Cell proliferation assays were performed with the CellTiter 96 AQueous One Solution Cell Proliferation Assay kit according to the manufacturer's instructions (Promega, Madison, Wis., USA). Briefly, 5×10^3 cells/well in medium were placed onto 96-well plates. IGs were added to cellular cultures at final concentrations of 0, 1, 10, and 100 μM. Cultures were incubated for 3 days or 7 days and then added to 20 μL/well of CellTiter 96 AQueous One Solution Reagent, which contains a tetrazolium compound, 3-(4,5-dimethylthiazol-2-yl)-5-(3-carboxymethoxyphenyl)-2-(4-sulfophenyl)-2H-tetrazolium, an inner salt; MTS was added to the culture medium. After incubating the plate for 1 h in a CO2 incubator, absorbance at 490 nm was recorded with a 96-well plate reader.

Assay [1] concerns human mammary cancer cells (MCF-7). Put plainly: Cell proliferation / cell death assay, MCF-7. It counts as cell-based. The following applies: MCF-7, 10-100 μM. As to the method:
as §1, §2

Assay [2] deals with human prostate cancer cells (PC3). Put plainly: Cell proliferation / cell death assay, PC3. The format is cell-based. The following applies: PC3, 10-100 μM. As to the method:
as §1
as §2, with “Cultures were incubated for 3 days or 7 days and then added to 20 μL/well” left out

The test system of the next assay is STZ-diabetic mice. The assay can be described thus: Intraperitoneal IG1 for 7 days, STZ-diabetic mice. It counts as in vivo. On the procedure: Male C57BL/6 mice were housed individually and given free access to a standard diet (65% carbohydrate, 4% fat, and 24% protein) or a high-fat diet (Quick Fat; 60.2% carbohydrate, 15.3% fat, and 24.5% protein; Clea Japan, Tokyo, Japan), starting at 5 weeks of age, for 5 weeks. Db/db mice also were housed individually and given free access to a standard diet. C57BL/6 mice at 5 weeks of age, were received a single dose of 75 μg/g body weight streptozotoxin (STZ). 7 days after injections, the mice, whose fasting plasma glucose concentrations were over 400 mg/dl, were used as STZ-diabetic mice. […]
Frozen livers were homogenized, and triglycerides were extracted with CHCl3:CH3OH (2:1, vol:vol), dried and resuspended in 2-propanol (17). Triglyceride contents were measured using Lipidos liquid (TOYOBO, Osaka, Japan). […] Glycogen content was determined by the phenol-sulfuric acid spectrophotometric method at 490 nm (18) and expressed as micrograms of glycogen per milligram of liver.
Blood glucose was assayed with Glucose Ace (Sanwa Kagaku Kenkyusho, Nagoya, Japan). Serum insulin and leptin were determined with ELISA kits (Morinaga Institute of Biological Science, Yokohama, Japan). Serum adiponectin and tumor necrosis factor-α (TNF-α) concentrations were measured with an ELISA kit (Ohtsuka Pharmaceutical, Tokyo, Japan) and a TNF-α assay kit (Amersham Biosciences, Uppsala, Sweden), respectively. […]

The subject of assay [3] is C57B/6 mice on high-fat diets. Put plainly: IG1 treatment for 28 days, mice on high-fat diets. The format is in vivo. The following applies: data not shown. As to the method:
Male C57BL/6 mice were housed individually and given free access to a standard diet (65% carbohydrate, 4% fat, and 24% protein) or a high-fat diet (Quick Fat; 60.2% carbohydrate, 15.3% fat, and 24.5% protein; Clea Japan, Tokyo, Japan), starting at 5 weeks of age, for 5 weeks. Db/db mice also were housed individually and given free access to a standard diet. C57BL/6 mice at 5 weeks of age, were received a single dose of 75 μg/g body weight streptozotoxin (STZ). 7 days after injections, the mice, whose fasting plasma glucose concentrations were over 400 mg/dl, were used as STZ-diabetic mice. Animal study protocols were in accordance with the institutional guidelines for animal experiments at Tohoku University.
Blood glucose was assayed with Glucose Ace (Sanwa Kagaku Kenkyusho, Nagoya, Japan). Serum insulin and leptin were determined with ELISA kits (Morinaga Institute of Biological Science, Yokohama, Japan). Serum adiponectin and tumor necrosis factor-α (TNF-α) concentrations were measured with an ELISA kit (Ohtsuka Pharmaceutical, Tokyo, Japan) and a TNF-α assay kit (Amersham Biosciences, Uppsala, Sweden), respectively. Serum total cholesterol, triglyceride, and FFA concentrations were determined with a Cholescolor liquid, Lipidos liquid (TOYOBO, Osaka, Japan), and NEFA C (Wako Pure Chemical, Osaka, Japan) kits, respectively.

SMILES strings stand for the structures.

On to `CCCCCCCCCCCCCCCC(=O)O[C@@H]1C(O)C(O)[C@H](O)C(O[C@H]2OC(CO)[C@@H](O)[C@H](O)C2N)C1O` (stereo in doubt) [IG1, 2-Amino-2-deoxy-α-D-glucopyranosyl-(1→6)-2-palmitoyl-D-myo-inositol], for which the “rapid cancer cell death” value (in the assay on BXPC3; in assay [1]; in assay [2]) was “rapid cancer cell death was demonstrated” throughout. Also, in the assay with STZ-diabetic mice (intraperitoneal 7 days, data not shown), the “hepatic and muscular glycogen synthesis” value was “increases hepatic and muscular glycogen synthesis”. Besides, in the assay with STZ-diabetic mice (intraperitoneal, 0.3 mg per mice, for every 7 days), the “fasting plasma glucose concentrations” value was “significantly reduced fasting plasma glucose concentrations”. For the same compound, the “daily food intakes, body weight, and fasting plasma concentrations of insulin, triglyceride, free fatty acids and leptin” value in assay [3] is recorded as “significantly reduces”.

Values taken from patent US20100197625A1, “SYNTHETIC LIPOPHILIC INOSITOL GLYCANS FOR TREATMENT OF CANCER AND GLUCOSE-METABOLISM DISORDERS” (priority 2006, published 2010).
